{"source": "patent US9730915B2", "about": "(OBSCHESTVO S OGRANICHENNOI OTVETSTVENNOSTIYU …, priority 2013, dated 2017)", "key": {"IFNAR1": {"tested_on": "IFNAR1", "test": "Density of interferon receptor subunit IFNAR1 on the surface of primary human macrophages (antibody staining, optical density)", "type": "cell-based", "conditions": "primary human macrophages, 0.1, 1.0, 10 or 100 ng/mL, 24 hours (FIG. 2)", "method": "(§1) A 10-day primary culture of human macrophages in 96-well plates was incubated for 24 hours in the presence of glutaryl histamine at concentrations: 0.1, 1.0, 10 or 100 ng/mL or without it. […] The preparation was visualized by staining with horseradish peroxidase-labeled secondary antibodies and adding a substrate. Optical density was measured using an ELISA spectrophotometer."}, "protein MxA": {"tested_on": "protein MxA", "test": "Cell sensitivity to interferon: MxA protein immunoblot in A-549 cells", "type": "cell-based", "conditions": "for synthesis of MxA protein: glutaryl histamine 100 ng/mL plus 1 IU interferon-alpha", "from_the_text": "Cell lysates were undergone to the procedure of immunoblot analysis (western blotting) by using monoclonal antibodies against to protein MxA (sc-50509, Santa Cruz Biotechnology) to stain membranes by a chemiluminescence method using a substrate (chemiluminescent reagent SUPER SIGNAL® West Femto Chemiluminescent Substrate (Thermo Fisher Scientific))."}, "[1]": {"tested_on": "herpes simplex virus HSV-2/VN", "test": "Murine model of herpes meningoencephalitis, HSV-2/VN", "type": "in vivo", "conditions": "mice", "method": "(§2) Mice were intracerebrally infected with herpes simplex virus HSV-1/CL and HSV-2/VN in a dose of 30 μl comprising 10 LD50.\n(§3) A therapeutic effect of glutaryl histamine was studied by once-daily oral administration of 200 μl of the drug to the infected mice at a dose of 30 mg/kg 24, 48, 72, 96, and 120 hours after infection with the virus. Mice of the control group were administered placebo under the same conditions ([…] of a physiological solution). The animals were monitored for 14 days after infection, and fatal cases among mice from herpes meningocephalitis were registered in the treated and control groups. Activity of the drug was evaluated by comparing mortality rates of animals treated with glutaryl histamine relative to animals of the control group. A reduction in the mortality rate of the treated animals relative to the control was expressed in percentage."}, "IFNAR1 mRNA": {"tested_on": "IFNAR1 mRNA", "test": "mRNA synthesis of interferon receptor subunit IFNAR1, Real Time PCR in A-549 cells", "type": "cell-based", "conditions": "100 ng/mL, 16 hours after the treatment (FIG. 1)", "method": "(§4) A continuous cell line A-549 was treated with glutaryl histamine at a concentration of 100 ng/mL. […] The RNAs were isolated by using RNEASY® Kit (Qiagen). The RNA preparation was treated with DNAase (RNase-free DNaseI (Ambion). Reverse transcription was performed by using THERMOSCRIPT™ RT-PCR System (Invitrogen). Quantitative PCR was carried out with the primers: […]"}, "IFNAR2": {"tested_on": "IFNAR2", "test": "Density of interferon receptor subunit IFNAR2 on the surface of primary human macrophages (antibody staining, optical density)", "type": "cell-based", "conditions": "primary human macrophages, 0.1, 1.0, 10 or 100 ng/mL, 24 hours (FIG. 2)", "method": "as §1"}, "IFNAR2 mRNA": {"tested_on": "IFNAR2 mRNA", "test": "mRNA synthesis of interferon receptor subunit IFNAR2, Real Time PCR in A-549 cells", "type": "cell-based", "conditions": "100 ng/mL, 16 hours after the treatment (FIG. 1)", "method": "as §4"}, "[2]": {"tested_on": "herpes simplex virus HSV-1/CL", "test": "Murine model of herpes meningoencephalitis, HSV-1/CL", "type": "in vivo", "conditions": "mice", "method": "as §2, §3"}, "[3]": {"test": "Toxic reactions and side effects on administration"}}, "note": "Where “and” joins values, the source holds several entries; their conditions need not be identical. Equal entries are not always repeated.", "data": [{"smiles": "O=C(O)CCCC(=O)NCCc1c[nH]cn1", "note": "[glutaryl histamine]", "values": [{"measurement": "density of IFNAR1 on the cell surface (signal in antibody staining)", "setting": "IFNAR1", "value": "noticeably increased level of the signal"}, {"measurement": "synthesis of MxA protein", "setting": "protein MxA; 8 hours (line 5, FIG. 3)", "value": "increased synthesis"}, {"measurement": "synthesis of MxA protein", "setting": "protein MxA; 24 hours (line 6, FIG. 3)", "value": "increased synthesis"}, {"measurement": "accumulation of MxA protein", "setting": "protein MxA; glutaryl histamine 100 ng/mL, not treated with interferon (lines 1, 2, 3, FIG. 3)", "value": "did not cause the accumulation"}, {"measurement": "Life expectancy, days M ± σ", "setting": "[1]; HSV-2, 14 days monitoring, control 6.1 ± 4.3", "value": "10.2 days and 10.2 ± 4.8 days"}, {"measurement": "Protection index, %", "setting": "[1]; HSV-2, reduction in mortality relative to control", "value": 47.1, "unit": "%"}, {"measurement": "Mortality rate, %", "setting": "[1]; HSV-2 intracerebral 10 LD50, oral once daily 24-120 h after infection, 14 days monitoring, control 85.0", "value": 45, "unit": "%"}, {"measurement": "increase in the mRNA synthesis of subunit IFNAR1", "setting": "IFNAR1 mRNA", "value": "at least in a two-folded increase"}, {"measurement": "density of IFNAR2 on the cell surface (signal in antibody staining)", "setting": "IFNAR2", "value": "noticeably increased level of the signal"}, {"measurement": "increase in the amount of the mRNA of subunit IFNAR2", "setting": "IFNAR2 mRNA", "value": "three-fold increase"}, {"measurement": "Mortality rate, %", "setting": "[2]; HSV-1 strain CL intracerebral 10 LD50, oral once daily 24-120 h after infection, 14 days monitoring, control 95.0", "value": 65, "unit": "%"}, {"measurement": "Life expectancy, days M ± σ", "setting": "[2]; HSV-1 strain CL, 14 days monitoring, control 4.8 ± 3.1", "value": "8.1 days and 8.1 ± 4.9 days"}, {"measurement": "Protection index, %", "setting": "[2]; HSV-1 strain CL, reduction in mortality relative to control", "value": 31.6, "unit": "%"}, {"measurement": "toxic reactions and other side effects", "setting": "[3]; accompanying the therapeutic effect", "value": "not accompanied by toxic reactions and other side effects"}, {"measurement": "adverse side effects", "setting": "[3]; long-term administration in therapeutic doses or doses greater by an order of magnitude", "value": "has not demonstrated adverse side effects"}]}]}
